Source: ChEMBL document CHEMBL6092203, “Discovery of Novel PROTAC-Based HPK1 Degraders with High Potency and Selectivity for Cancer Immunotherapy” (J Med Chem, 2024)
pIC50: −log10 of the molar value. Active and inactive are the calls of the source. The calls are words filed in the database; no cut-off is given here.

How the values were obtained:
MC-38 [1] = test: Antitumor activity against mouse MC38 cells implanted in C57BL/6J mouse assessed as tumor growth inhibition at 100 mg/kg, po QD administered for 4 weeks; assay type: functional; conditions: MC-38, 672 h, read-out: TGI
[2] = Toxicity in C57BL/6J mouse assessed as change in body weight at 100 mg/kg, po qd measured after 28 days; assay type: organism-based; conditions: in vivo, 672 h, time 28 day
in vivo [3] = conditions: male, Sprague-Dawley, rat, po, 30 mg/kg
[4] = AUCinfinity in Sprague-Dawley rat at 1 mg/kg, po measured upto 24 hrs by LC-MS analysis; assay type: ADME, organism-based; conditions: in vivo
[5] = AUCinfinity in Beagle dog at 5 mg/kg, po measured upto 24 hrs by LC-MS analysis; assay type: ADME, organism-based, Canis lupus familiaris; conditions: in vivo
[6] = AUC(0 to 24 hrs) in male Sprague-Dawley rat at 2 mg/kg/day, po measured at day 1; assay type: ADME, organism-based; conditions: in vivo, time 1 day
[7] = Drug metabolism in human hepatocytes assessed as phase 2 metabolites formation at 10 uM incubated for 120 mins by UHPLC-UV/MS/MS method; assay type: ADME, cell-based, Hepatocyte; conditions: 2 h
[8] = Plasma protein binding in dog at 10 uM incubated for 6 hrs by equilibrium dialysis based LC-MS/MS method; assay type: ADME, cell-free, Canis lupus familiaris; conditions: read-out: PPB (converted)
in vitro [9] = conditions: human, liver microsomes
MC-38 [10] = test: Synergistic antitumor activity against mouse MC38 cells implanted in C57BL/6J mouse assessed as tumor growth inhibition at 0.1 mg/kg, po bid measured after 4 weeks in presence of 5 mg/kg anti-PD1 and measured twice a week; assay type: functional; conditions: MC-38, 672 h, read-out: TGI
MC-38 [11] = test: Synergistic antitumor activity against mouse MC38 cells implanted in C57BL/6J mouse assessed as tumor growth inhibition at 1 mg/kg, po bid measured after 4 weeks in presence of 5 mg/kg anti-PD1 and measured twice a week; assay type: functional; conditions: MC-38, 672 h, read-out: TGI
[12] = Tmax in female Sprague-Dawley rat at 100 mg/kg/day, po measured at day 14; assay type: ADME, organism-based; conditions: in vivo, time 14 day
MC-38 [13] = test: Synergistic antitumor activity against mouse MC38 cells implanted in C57BL/6J mouse assessed as tumor weight inhibition rate at 1 mg/kg, po bid measured after 4 weeks in presence of 5 mg/kg anti-PD1 and measured twice a week; assay type: functional; parameters: scale not given: the % may be the effect or the level left
[14] = Tmax in female Sprague-Dawley rat at 30 mg/kg/day, po measured at day 1; assay type: ADME, organism-based; conditions: in vivo, time 1 day
in vivo [15] = conditions: Sprague-Dawley, rat, po, 1 mg/kg
in vivo [16] = conditions: male, Sprague-Dawley, rat, po, 100 mg/kg
[17] = Drug metabolism in human hepatocytes assessed as phase 1 metabolites formation at 10 uM incubated for 120 mins by UHPLC-UV/MS/MS method; assay type: ADME, cell-based, Hepatocyte; conditions: 2 h
[18] = Apparent permeability across apical to basolateral side in human Caco-2 cells at 10 uM incubated for 2 hrs by LC-MS/MS analysis; assay type: ADME, cell-based
in vitro [19] = conditions: rhesus monkey, hepatocytes
in vitro [20] = conditions: rat, liver microsomes
[21] = AUC(0 to 24 hrs) in male Sprague-Dawley rat at 30 mg/kg/day, po measured at day 1; assay type: ADME, organism-based; conditions: in vivo, time 1 day
[22] = Tmax in Beagle dog at 5 mg/kg, po measured upto 24 hrs by LC-MS analysis; assay type: ADME, organism-based, Canis lupus familiaris; conditions: in vivo
[23] = Clearance in Beagle dog at 1 mg/kg, iv measured upto 24 hrs by LC-MS analysis; conditions: in vivo
MC-38 [24] = test: Antitumor activity against mouse MC38 cells implanted in C57BL/6J mouse assessed as reduction in tumor weight at 0.5 mg/kg, po BID administered for 3 to 4 weeks (reference value: 1.79 +/- 0.24 g); assay type: functional; conditions: time 3-4 weeks
[25] = Metabolic stability in mouse liver microsomes assessed as intrinsic clearance at 1 uM incubated for 45 mins by LC-MS/MS method; assay type: ADME, Microsome; conditions: read-out: CLH
in vivo [26] = conditions: female, Sprague-Dawley, rat, po, 100 mg/kg
[27] = AUC(0 to 24 hrs) in female Sprague-Dawley rat at 100 mg/kg/day, po measured at day 1; assay type: ADME, organism-based; conditions: in vivo, time 1 day
[28] = Drug distribution in rat liver measured after 0.5 to 6 hrs; assay type: ADME, tissue-based; conditions: in vivo, time 0.5-6 hrs
[29] = Toxicity in Sprague-Dawley rat assessed as no observable adverse effect level exposure measured after 14 days; conditions: in vivo, 336 h, time 14 day
in vivo [30] = conditions: female, Sprague-Dawley, rat, po, 100 mg/kg; remark: listed apart in the source
MC-38 [31] = test: Synergistic antitumor activity against mouse MC38 cells implanted in C57BL/6J mouse assessed as reduction in tumor volume at 0.1 mg/kg, po bid administered for 3 to 4 weeks in presence of 5 mg/kg anti-PD1 and measured twice a week (reference value: 1549.22 +/- 217.92 mm3); assay type: functional; conditions: time 3-4 weeks
[32] = biological target: Protein cereblon/Mitogen-activated protein kinase kinase kinase kinase 1 (Homo sapiens, UniProt Q92918+Q96SW2); test: PROTAC activity at CRBN/HPK1 in human Jurkat cells assessed as HPK1 degradation at 300 nM measured after 24 hrs by Western blotting analysis; assay type: cell-based
Sequence of Protein cereblon/Mitogen-activated protein kinase kinase kinase kinase 1 (Q92918 whole entry, looked up): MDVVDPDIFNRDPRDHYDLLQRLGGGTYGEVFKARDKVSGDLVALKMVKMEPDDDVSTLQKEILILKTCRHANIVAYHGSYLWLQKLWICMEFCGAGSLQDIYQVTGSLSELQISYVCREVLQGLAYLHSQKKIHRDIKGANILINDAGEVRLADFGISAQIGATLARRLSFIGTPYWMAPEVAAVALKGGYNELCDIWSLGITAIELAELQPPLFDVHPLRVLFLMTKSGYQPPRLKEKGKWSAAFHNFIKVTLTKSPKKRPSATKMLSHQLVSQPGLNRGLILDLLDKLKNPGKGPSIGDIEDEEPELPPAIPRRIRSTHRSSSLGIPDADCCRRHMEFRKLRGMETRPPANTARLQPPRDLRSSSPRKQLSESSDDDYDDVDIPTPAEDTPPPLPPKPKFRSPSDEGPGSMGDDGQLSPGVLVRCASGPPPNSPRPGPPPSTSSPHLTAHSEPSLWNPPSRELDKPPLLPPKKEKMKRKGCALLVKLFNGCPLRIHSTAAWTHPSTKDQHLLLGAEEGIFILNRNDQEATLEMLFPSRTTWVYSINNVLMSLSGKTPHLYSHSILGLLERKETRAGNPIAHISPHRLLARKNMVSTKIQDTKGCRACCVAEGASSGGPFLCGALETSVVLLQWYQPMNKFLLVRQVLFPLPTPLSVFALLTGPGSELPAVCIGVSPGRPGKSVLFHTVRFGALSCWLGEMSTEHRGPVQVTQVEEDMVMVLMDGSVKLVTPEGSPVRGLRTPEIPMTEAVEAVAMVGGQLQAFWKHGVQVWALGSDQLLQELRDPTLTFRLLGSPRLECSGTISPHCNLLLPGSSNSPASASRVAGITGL
Sequence of Protein cereblon/Mitogen-activated protein kinase kinase kinase kinase 1 (Q96SW2 whole entry, looked up): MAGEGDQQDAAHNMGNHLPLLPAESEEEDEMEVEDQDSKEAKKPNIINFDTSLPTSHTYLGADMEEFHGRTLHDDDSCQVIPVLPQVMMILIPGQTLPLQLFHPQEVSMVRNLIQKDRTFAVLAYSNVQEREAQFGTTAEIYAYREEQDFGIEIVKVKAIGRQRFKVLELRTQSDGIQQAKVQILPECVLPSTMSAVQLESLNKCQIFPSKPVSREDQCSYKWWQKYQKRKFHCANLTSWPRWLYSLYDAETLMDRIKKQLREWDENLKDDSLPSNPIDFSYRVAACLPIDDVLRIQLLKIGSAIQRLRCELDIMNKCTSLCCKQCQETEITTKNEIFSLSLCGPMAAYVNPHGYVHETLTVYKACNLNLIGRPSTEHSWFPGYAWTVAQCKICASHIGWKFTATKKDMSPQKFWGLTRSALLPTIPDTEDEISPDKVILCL

Cytochrome P450 1A2 = biological target: T1, Cytochrome P450 1A2 (Homo sapiens, UniProt P05177); test: Inhibition of CYP1A2 in human liver microsomes using phenacetin as substrate in presence of NADPH; assay type: ADME, Microsome
T1 sequence (P05177 whole entry): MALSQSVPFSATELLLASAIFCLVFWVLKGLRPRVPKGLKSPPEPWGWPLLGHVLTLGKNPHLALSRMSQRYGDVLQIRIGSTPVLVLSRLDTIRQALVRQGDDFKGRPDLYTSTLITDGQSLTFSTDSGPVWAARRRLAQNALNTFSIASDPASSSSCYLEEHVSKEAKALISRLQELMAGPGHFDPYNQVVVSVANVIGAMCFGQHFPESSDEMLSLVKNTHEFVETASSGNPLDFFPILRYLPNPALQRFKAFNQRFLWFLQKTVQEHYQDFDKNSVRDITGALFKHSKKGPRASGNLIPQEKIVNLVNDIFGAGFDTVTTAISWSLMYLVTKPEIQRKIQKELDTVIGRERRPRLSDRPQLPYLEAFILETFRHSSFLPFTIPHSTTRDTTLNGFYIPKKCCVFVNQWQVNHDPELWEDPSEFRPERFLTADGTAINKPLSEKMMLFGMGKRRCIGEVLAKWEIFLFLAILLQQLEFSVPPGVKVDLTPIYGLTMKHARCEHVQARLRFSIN

MC-38 [33] = test: Synergistic antitumor activity against mouse MC38 cells implanted in C57BL/6J mouse assessed as reduction in tumor weight at 0.1 mg/kg, po bid administered for 3 to 4 weeks in presence of 5 mg/kg anti-PD1 and measured twice a week (reference value: 1.79 +/- 0.24 g); assay type: functional; conditions: time 3-4 weeks
[34] = Metabolic stability in mouse hepatocytes assessed as intrinsic clearance at 1 uM incubated for 90 mins by LC-MS/MS method; assay type: ADME, cell-based, Hepatocyte; conditions: 1.5 h

## O=C1CCN(c2cc(C(=O)N3CCC(CC4CCN(c5ccc(-c6cnc7[nH]cc(-c8cnn(CC(F)(F)F)c8)c7n6)cn5)CC4)CC3)ccc2Cl)C(=O)N1
MC-38 [1]
  inhibition in vivo at 100 mg/kg: 56.9%
[2]
  Activity: Non-toxic
In vivo [3]
  Cmax at 24 h: 3560 ng/mL
[4]
  AUC(0-inf): 894 ng·h/mL
[5]
  AUC(0-inf): 796 ng·h/mL
[6]
  AUC(0-t) at 24 h: 1040 ng·h/mL
[7]
  Drug metabolism: metabolite_detected
[8]
  fraction unbound at 6 h, 10 µM: 0.0004
In vitro [9]
  half-life at 0.75 h, 1 µM: > 5 h
MC-38 [10]
  inhibition in vivo at 0.1 mg/kg: 39.7%
MC-38 [11]
  inhibition in vivo at 1 mg/kg: 78.2%
[12]
  Tmax: 8.67 h
MC-38 [13]
  Activity: 76.61%
[14]
  Tmax: 8 h
In vivo [15]
  bioavailability at 24 h: 19.2%
In vivo [16]
  Cmax at 336 h: 11100 ng/mL
[17]
  Drug metabolism: metabolite_detected
[18]
  Papp A→B at 2 h, 10 µM: 0.16 ×10⁻⁶ cm/s
In vitro [19]
  half-life at 1.5 h, 1 µM: 1.3 h
In vitro [20]
  half-life at 0.75 h, 1 µM: 4.12 h
[21]
  AUC(0-t) at 24 h: 38200 ng·h/mL
[22]
  Tmax: 2.67 h
[23]
  clearance at 24 h: 17 mL/min/kg
MC-38 [24]
  Activity: 1.04 g
[25]
  microsomal CLint at 1 µM: 13.4 µL/min/mg
In vivo [26]
  Cmax at 24 h: 11200 ng/mL
[27]
  AUC(0-t) at 24 h: 110000 ng·h/mL
[28]
  Drug uptake: Active
[29]
  NOAEL: 136000 ng·h/mL
In vivo [30]
  AUC at 336 h: 121000 ng·h/mL
MC-38 [31]
  Activity: 934.84 mm3
[32]
  Activity: Active
Cytochrome P450 1A2
  pIC50: < 5.00
MC-38 [33]
  Activity: 1.17 g
[34]
  CLH: 1.52 µL/min/mg
